Laboratory results from publication PMC5011342, “A high throughput drug screening assay to identify compounds that promote oligodendrocyte differentiation using acutely dissociated and purified oligodendrocyte precursor cells” (BMC Research Notes, 2016).
Like-named read-outs stand apart in the source and are kept apart here. Non-standard residues stand in square brackets, D forms with d. Residues, ends and D or L forms follow the SMILES beside them. pGlu = O=C1CC[C@@H](C(=O)O)N1; Thz = O=C(O)[C@@H]1CSCN1

Columns and labels:
[1] = tested on: expanded OPCs; test: cells; conditions: for viability at 0.1 µM / viability at 1 µM / viability at 10 µM: Rattus norvegicus, 72 h
How it was run: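 Expanded OPCs seeded at 10,000 cells/well in differentiation media, then exposed to NCC library compounds at 10, 1 and 0.1 µM (quadruplicate, 0.1% DMSO) for three days. Viability read as alamarBlue fluorescence (560/590 nm) after 4 h at 37 °C; tunicamycin 5 ng/ml served as toxicity control.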

[2] = tested on: acutely dissociated and purified rat OPCs; test: Acute OL differentiation assay (MBP expression/cell, immunofluorescent image quantification); type: cell-based
How it was run: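 Oligodendrocyte precursor cells were enriched from P6-P7 Sprague–Dawley rat brains by immunopanning (RAN-2 and GalC depletion, O4 selection), plated at 5000 cells/well in serum-free, mitogen-free differentiation media on PDL/laminin 96-well view plates, centrifuged at 200×g, and pre-incubated 1–2 h before test compounds were added in quadruplicate. On DIV4, cells were fixed, stained for MBP and DAPI, imaged automatically, and MBP expression per cell was quantified.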

[3] = alamarBlue viability of expanded OPCs, compound at 0.1 µM, relative to DMSO control
[4] = alamarBlue viability of expanded OPCs, compound at 1 µM, relative to DMSO control
[5] = alamarBlue viability of expanded OPCs, compound at 10 µM, relative to DMSO control
[6] = Rattus norvegicus, test compound at 2 uM, MBP expression relative to quetiapine, NCC library screen, sheet "All OLga data", read-out: 2 uM (% Quet)
[7] = Rattus norvegicus, test compound at 10 uM, MBP expression relative to quetiapine, NCC library screen, sheet "All OLga data", read-out: 10 uM (% Quet)
[8] = read-out: 0.1 µM (% DMSO), alamarBlue viability of expanded OPCs, compound at 0.1 µM, sheet All Tox data
[9] = read-out: 1 µM (% DMSO), alamarBlue viability of expanded OPCs, compound at 1 µM, sheet All Tox data
[10] = read-out: 10 µM (% DMSO), alamarBlue viability of expanded OPCs, compound at 10 µM, sheet All Tox data
[11] = Rattus norvegicus, 2 uM test compound, relative to quetiapine, sheet "All OLga data", read-out: OL differentiation, 2 uM (% Quet)
[12] = Rattus norvegicus, 10 uM test compound, relative to quetiapine, sheet "All OLga data", read-out: OL differentiation, 10 uM (% Quet)
[13] = Rattus norvegicus, test compound at 2 uM, NCC library screen, sheet "All OLga data", relative to quetiapine, read-out: 2 uM (% Quet)
[14] = Rattus norvegicus, test compound at 10 uM, NCC library screen, sheet "All OLga data", relative to quetiapine, read-out: 10 uM (% Quet)
[15] = read-out: 0.1 µM (% DMSO), alamarBlue viability, NCC library compound at 0.1 µM, sheet "All Tox data"
[16] = read-out: 1 µM (% DMSO), alamarBlue viability, NCC library compound at 1 µM, sheet "All Tox data"
[17] = read-out: 10 µM (% DMSO), alamarBlue viability, NCC library compound at 10 µM, sheet "All Tox data"
[18] = Rattus norvegicus, 0.4 uM test compound, relative to quetiapine, sheet "All OLga data", read-out: OL differentiation, 0.4 uM (% Quet)
[19] = Rattus norvegicus, test compound at 0.4 uM, NCC library screen, sheet "All OLga data", relative to quetiapine, read-out: 0.4 uM (% Quet)

## CC1CCN(CCCC(=O)c2ccc(F)cc2)CC1.Cl [Melperone hydrochloride]
[1]; alamarBlue viability, NCC library compound at 0.1 µM, sheet "All Tox data"
  0.1 µM (% DMSO): 105.5 % DMSO
[1]; alamarBlue viability, NCC library compound at 1 µM, sheet "All Tox data"
  1 µM (% DMSO): 130.9 % DMSO
[1]; alamarBlue viability, NCC library compound at 10 µM, sheet "All Tox data"
  10 µM (% DMSO): 151.7 % DMSO
[2]; test compound at 2 uM, NCC library screen, sheet "All OLga data", relative to quetiapine
  2 uM (% Quet): 39.6 % Quet
[2]; test compound at 10 uM, NCC library screen, sheet "All OLga data", relative to quetiapine
  10 uM (% Quet): 43.4 % Quet

## CC(=O)OCC(=O)[C@@]12OC3(CCCC3)O[C@@H]1C[C@H]1[C@@H]3CCC4=CC(=O)C=C[C@]4(C)[C@@]3(F)[C@@H](O)C[C@@]12C [Amcinonide]
[1]; [3]
  0.1 µM (% DMSO): 113.8 % DMSO
[1]; [4]
  1 µM (% DMSO): 123.7 % DMSO
[1]; [5]
  10 µM (% DMSO): 114.6 % DMSO
[2]; [6]
  activation at 2 µM: 18.1%
[2]; [7]
  activation at 10 µM: -10.2%

## CC(C)NCC(O)COc1ccc(COCCOC(C)C)cc1 (centres unmarked) [Bisoprolol]
[1]; [8]
  viability at 0.1 µM: 91.3%
[1]; [9]
  viability at 1 µM: 89.8%
[1]; [10]
  viability at 10 µM: 96.5%
[2]; [11]
  activation at 2 µM: -18.8%
[2]; [12]
  activation at 10 µM: -17.3%

## O=C1CC[C@@]2(O)[C@H]3Cc4ccc(O)c5c4[C@@]2(CCN3CC2CC2)[C@H]1O5 [Naltrexone]
[1]; [3]
  0.1 µM (% DMSO): 99.5 % DMSO
[1]; [4]
  1 µM (% DMSO): 101.6 % DMSO
[1]; [5]
  10 µM (% DMSO): 97.3 % DMSO
[2]; [6]
  activation at 2 µM: 12.8%
[2]; [7]
  activation at 10 µM: -5.6%

## CC(C)NCC(O)COc1ccc(CC(N)=O)cc1 (centres unmarked) [Atenolol]
[1]; [3]
  0.1 µM (% DMSO): 90.5 % DMSO
[1]; [4]
  1 µM (% DMSO): 105.2 % DMSO
[1]; [5]
  10 µM (% DMSO): 146.2 % DMSO
[2]; [13]
  activation at 2 µM: 31.5%
[2]; [14]
  activation at 10 µM: 86.2%

## C=C1/C(=C\C=C2/CCC[C@]3(C)[C@@H]([C@H](C)CCCC(C)(C)O)CC[C@@H]23)C[C@@H](O)C[C@@H]1O [Calcitriol]
[1]; [15]
  viability at 0.1 µM: 99.4%
[1]; [16]
  viability at 1 µM: 108%
[1]; [17]
  viability at 10 µM: 11%
[2]; [18]
  activation at 0.4 µM: 8.9%
[2]; [11]
  activation at 2 µM: 30.3%

## CC1(C)C[C@@H]1C(=O)N/C(=C\CCCCSC[C@H](N)C(=O)O)C(=O)O [Cilastatin]
[1]; read-out: 0.1 µM (% DMSO)
  viability at 0.1 µM: 96.8%
[1]; read-out: 1 µM (% DMSO)
  viability at 1 µM: 95.5%
[1]; read-out: 10 µM (% DMSO)
  viability at 10 µM: 89.5%
[2]; Rattus norvegicus, read-out: OL differentiation, 2 uM (% Quet)
  activation at 2 µM: -1.9%
[2]; Rattus norvegicus, read-out: OL differentiation, 10 uM (% Quet)
  activation at 10 µM: -4.3%

## CCCC1O[C@@H]2C[C@H]3[C@@H]4CCC5=CC(=O)C=C[C@]5(C)[C@H]4[C@@H](O)C[C@]3(C)[C@]2(C(=O)CO)O1 (some centres unmarked) [Budesonide]
[1]; [3]
  0.1 µM (% DMSO): 112.0 % DMSO
[1]; [4]
  1 µM (% DMSO): 115.9 % DMSO
[1]; [5]
  10 µM (% DMSO): 95.7 % DMSO
[2]; [6]
  activation at 2 µM: 20.2%
[2]; [7]
  activation at 10 µM: -2.2%

## COc1ccc(OC)c(C(O)CNC(=O)CN)c1 (centres unmarked) [Midodrine]
[1]; [3]
  0.1 µM (% DMSO): 90.8 % DMSO
[1]; [4]
  1 µM (% DMSO): 88.9 % DMSO
[1]; [5]
  10 µM (% DMSO): 89.1 % DMSO
[2]; [13]
  activation at 2 µM: -2.5%
[2]; [14]
  activation at 10 µM: 6.3%

## O=C1CC[C@@H](C(=O)N2CSC[C@H]2C(=O)O)N1 [Pidotimod] ([pGlu]-[Thz]-OH)
[1]; [8]
  viability at 0.1 µM: 96.9%
[1]; [9]
  viability at 1 µM: 105%
[1]; [10]
  viability at 10 µM: 104%
[2]; [11]
  activation at 2 µM: 7.5%
[2]; [12]
  activation at 10 µM: -1.8%

## CC(C)N(CCC(C(N)=O)(c1ccccc1)c1ccccn1)C(C)C (centres unmarked) [Disopyramide]
[1]; [3]
  0.1 µM (% DMSO): 89.6 % DMSO
[1]; [4]
  1 µM (% DMSO): 92.1 % DMSO
[1]; [5]
  10 µM (% DMSO): 88.7 % DMSO
[2]; [6]
  activation at 2 µM: -10.1%
[2]; [7]
  activation at 10 µM: -11.2%

## N[C@@H](C(=O)N[C@@H]1C(=O)N2C(C(=O)O)=C(Cl)CS[C@H]12)c1ccccc1 [Cefaclor]
[1]; [15]
  viability at 0.1 µM: 90.3%
[1]; [16]
  viability at 1 µM: 94.6%
[1]; [17]
  viability at 10 µM: 106%
[2]; [13]
  activation at 2 µM: -10.8%
[2]; [14]
  activation at 10 µM: 27.4%

## O=c1[nH]c(=O)n(C2CCCO2)cc1F (centres unmarked) [Tegafur]
[1]; [8]
  viability at 0.1 µM: 88.4%
[1]; [9]
  viability at 1 µM: 92.6%
[1]; [10]
  viability at 10 µM: 99.3%
[2]; [11]
  activation at 2 µM: -23.9%
[2]; [12]
  activation at 10 µM: -28%

## CCC1(c2ccc(N)cc2)CCC(=O)NC1=O (centres unmarked) [Aminoglutethimide]
[1]; [3]
  0.1 µM (% DMSO): 94.4 % DMSO
[1]; [4]
  1 µM (% DMSO): 89.6 % DMSO
[1]; [5]
  10 µM (% DMSO): 84.0 % DMSO
[2]; [6]
  activation at 2 µM: -11%
[2]; [7]
  activation at 10 µM: -7.7%

## CC#C[C@]1(O)CC[C@H]2[C@@H]3CCC4=CC(=O)CCC4=C3[C@@H](c3ccc(N(C)C)cc3)C[C@@]21C [Mifepristone]
[1]; [15]
  viability at 0.1 µM: 84.5%
[1]; [16]
  viability at 1 µM: 71.3%
[1]; [17]
  viability at 10 µM: 26.4%
[2]; [19]
  activation at 0.4 µM: -2.7%
[2]; [13]
  activation at 2 µM: -139%

## CC(C)Oc1ccc2c(=O)c(-c3ccccc3)coc2c1 [Ipriflavone]
[1]; [8]
  viability at 0.1 µM: 87.3%
[1]; [9]
  viability at 1 µM: 92.1%
[1]; [10]
  viability at 10 µM: 117%
[2]; [11]
  activation at 2 µM: 22.5%
[2]; [12]
  activation at 10 µM: 32%

## c1ccc(CC2=NCCN2)cc1 [Tolazoline]
[1]; [3]
  0.1 µM (% DMSO): 90.4 % DMSO
[1]; [4]
  1 µM (% DMSO): 94.2 % DMSO
[1]; [5]
  10 µM (% DMSO): 86.6 % DMSO
[2]; [6]
  activation at 2 µM: -2.4%
[2]; [7]
  activation at 10 µM: -19.3%

## COCCCOc1ccnc(C[S+]([O-])c2nc3ccccc3[nH]2)c1C (centres unmarked) [Rabeprazole]
[1]; [15]
  viability at 0.1 µM: 101%
[1]; [16]
  viability at 1 µM: 85.1%
[1]; [17]
  viability at 10 µM: 76.7%
[2]; [13]
  activation at 2 µM: -8.5%
[2]; [14]
  activation at 10 µM: -69.9%

## CCc1c2c(nc3ccc(OC(=O)N4CCC(N5CCCCC5)CC4)cc13)-c1cc3c(c(=O)n1C2)COC(=O)[C@]3(O)CC [Irinotecan]
[1]; [15]
  viability at 0.1 µM: 82.8%
[1]; [16]
  viability at 1 µM: 49.7%
[1]; [17]
  viability at 10 µM: 27.9%
[2]; Rattus norvegicus, test compound at 0.08 uM, NCC library screen, sheet "All OLga data", relative to quetiapine, read-out: 0.08 uM (% Quet)
  activation at 0.08 µM: -38.4%
[2]; [19]
  activation at 0.4 µM: -140%

## CCc1cccc2c3c([nH]c12)C(CC)(CC(=O)O)OCC3 (centres unmarked) [Etodolac]
[1]; [3]
  0.1 µM (% DMSO): 98.7 % DMSO
[1]; [4]
  1 µM (% DMSO): 88.3 % DMSO
[1]; [5]
  10 µM (% DMSO): 92.3 % DMSO
[2]; [6]
  activation at 2 µM: 20.9%
[2]; [7]
  activation at 10 µM: 7.5%

## O=C1CCc2ccc(OCCCCN3CCN(c4cccc(Cl)c4Cl)CC3)cc2N1 [Aripiprazole]
[1]; [8]
  viability at 0.1 µM: 88.2%
[1]; [9]
  viability at 1 µM: 86.5%
[1]; [10]
  viability at 10 µM: 11.3%
[2]; [18]
  activation at 0.4 µM: -30.6%
[2]; [11]
  activation at 2 µM: -18.8%

## CCN(CC)CCNC(=O)c1cc(Cl)c(N)cc1OC [Metoclopramide]
[1]; [3]
  0.1 µM (% DMSO): 108.4 % DMSO
[1]; [4]
  1 µM (% DMSO): 109.6 % DMSO
[1]; [5]
  10 µM (% DMSO): 116.8 % DMSO
[2]; [13]
  activation at 2 µM: -21.4%
[2]; [14]
  activation at 10 µM: -26.2%
